From article PMC6149683, “In Vitro Investigation of the Interaction of Tolbutamide and Losartan with Human Serum Albumin in Hyperglycemia States” (Molecules : A Journal of Synthetic Chemistry and Natural …, 2017)
Like-named read-outs stand apart in the source and are kept apart here.

What was measured:
[1] = test system: T1, non-glycated (HSA) and glycated (gHSAFRC) human serum albumin, Sudlow's site I and II; assay: Binding of fluorescent site-marker probes to glycated versus non-glycated albumin (fluorimetric titration)
T1 construct: human serum albumin (HSA, Lot No. 8234H) with fatty acids (fraction V) was purchased from MP Biomedicals LLC; purchased MP Biomedicals LLC (Illkirch, France) Lot No. 8234H (a lot number; no catalogue number given)

plasma protein = conditions: cited from earlier work
[2] = albumin 5 × 10^−6 mol∙L^−1 titrated with probe, 37 °C, Figure 7

Row | SMILES | probe fluorescence / binding with gHSAFRC compared with HSA [1, 2] | further results
1 | CN(C)c1cccc2c(S(=O)(=O)N[C@@H](CCC(N)=O)C(=O)O)cccc12 [dGln, dansyl-L-glutamine] | stronger for glycated than non-modified albumin | 
2 | CN(C)c1cccc2c(S(N)(=O)=O)cccc12 [DNSA, 5-dimethylaminonaphthalene-1-sulfonamide] | no significant difference in the fluorescence intensity | 
3 | CCCCc1nc(Cl)c(CO)n1Cc1ccc(-c2ccccc2-c2nn[nH]n2)cc1 [LOS, (2-butyl-4-chloro-1-{[2′-(1H-tetrazol-5-yl)-4-biphenylyl]methyl}-1H-imidazol-5-yl)methanol] |  | bound with plasma protein (plasma protein): 98.6–98.8%
4 | CC(=O)CC(c1ccccc1)c1c(O)c2ccccc2oc1=O (centres unmarked) [WAR, warfarin] |  | probe fluorescence / binding with gHSAFRC compared with HSA [1]: stronger than with non-glycated albumin
5 | CN(C)c1cccc2c(S(=O)(=O)N3CCC[C@H]3C(=O)O)cccc12 [dPro, N-dansyl-L-proline] | stronger for glycated than non-modified albumin | 
